{"source": "paper PMC11763264", "about": "“Antibacterial and Antifungal Activities of Linear and Cyclic Peptides Containing Arginine, Tryptophan, and Diphenylalanine” (Antibiotics, 2025)", "key": {"MDA-MB-468 cells": {"system": "MDA-MB-468 cells", "conditions": "cited from earlier work", "description": "(§1) We have previously reported in vitro cytotoxicity of the synthesized peptides in a range of mammalian cell lines, including human ovarian adenocarcinoma cells (SK-OV-3), human peripheral blood lymphoblast cells (CCRF-CEM), healthy human embryonic kidney cells (HEK-293), human mammary adenocarcinoma cells (MDA-MB-468), normal pig kidney epithelial cells (LLC-PK1), and human uterine sarcoma fibroblast cells (MES-SA)."}, "MES-SA cells": {"system": "MES-SA cells", "conditions": "cited from earlier work", "description": "as §1"}, "LLC-PK1 cells": {"system": "LLC-PK1 cells", "conditions": "cited from earlier work", "description": "as §1"}, "B. subtilis (ATCC-6633)": {"system": "B. subtilis (ATCC-6633)", "assay": "microbe, parasite or virus in culture", "type": "cell-based, Bacillus subtilis", "conditions": "ATCC-6633, 24 h", "protocol": "(§2) The antibacterial activity of all ten synthesized linear and cyclic peptides was evaluated against MRSA (ATCC BAA-1556), S. aureus (ATCC 29213), E. faecium (ATCC 700221), S. pneumoniae (ATCC 51938), E. faecalis (ATCC 29212), B. subtilis (ATCC-6633), K. pneumoniae (ATCC BAA-1705), P. aeruginosa (ATCC 27883), and E. coli (ATCC 25922). Meropenem and daptomycin were used as positive controls for this study. Certain peptides are marked as “NT” (not tested) against specific bacterial strains based on initial screening data. […] The MIC was determined by micro-broth dilution protocol, where the minimal concentrations were determined to be in wells with no visible bacterial growth.\n(§3) All bacterial experiments were carried out in a laminar flow hood (Labconco, Kansas City, MO, USA). The bacterial strains were cultured following the guidelines set by the Clinical Laboratory Standards Institute (CLSI). Antibacterial assays were performed using a standard microtiter dilution method as described in previous studies. The minimum inhibitory concentration (MIC) refers to the lowest peptide concentration that inhibits bacterial growth in wells with no visible bacterial growth. MIC was determined by micro-broth dilution. Bacteria were cultured overnight in 6 mL of Luria Broth (LB). A stock solution of the peptide was prepared in water and DMSO, and a test compound solution with a concentration of 256 µg/mL was made in LB. Meropenem, with a solubility of 8 mg/mL, was prepared as a stock solution at 4 mg/500 µL. An aliquot of the overnight bacteria culture was diluted in normal saline (NS, 1 mL) until achieving a 0.5 McFarland turbidity (1.5 × 10^8 bacterial cell CFU/mL). A 0.5 McFarland compared solution (60 µL) was added to Mueller Hinton Broth (MH) 8940 µL to generate a 1/150 dilution. A 200 µL test compound solution was added to the first well of a 96-well plate, and the remaining wells (2–12) were filled with 100 µL of MH media using a multi-channel pipette from a sterile reservoir. A concentration of […] of the tested peptides was prepared from a stock solution of the samples for testing in Muller−Hinton broth MH media. Peptides stock solution was dissolved in 5% DMSO in water, and the final concentration of DMSO in the first well of assay plate was 2.5% DMSO/H2O and diluted across the assay plate.\n(§4) A 100 µL sample from well 1 was pipetted into well 2, and the solution was mixed thoroughly by pipetting up and down. Next, 100 µL was transferred from well 2 to well 3, followed by thorough mixing. This 2-fold serial dilution process continued through well 11, with no additions made to well 12. The final 100 µL from well 11 was discarded. After completing the serial dilution, each well (1–12) contained 100 µL of solution. The bacterial culture in MH media was vortexed and transferred to a sterile reservoir, from which 100 µL was added to each well using a 12-channel pipette. (Note: The dilutions were further diluted upon adding the bacterial solution; for example, the concentration in well 1 started at […] after the addition of the bacterial culture.) The plates were incubated overnight at 37 °C for 24 h. All experiments were performed in triplicate and repeated twice, with controls consisting of bacteria in MH media and positive controls of daptomycin or meropenem."}, "[1]": {"system": "Gram-positive bacteria strains: MRSA, S. aureus, E. faecium, E. faecalis, S. pneumoniae, and B. subtilis", "type": "cell-based", "conditions": "span over MRSA, micro-broth dilution", "protocol": "as §2\n(§5) All bacterial experiments were carried out in a laminar flow hood (Labconco, Kansas City, MO, USA). The bacterial strains were cultured following the guidelines set by the Clinical Laboratory Standards Institute (CLSI). Antibacterial assays were performed using a standard microtiter dilution method as described in previous studies. The minimum inhibitory concentration (MIC) refers to the lowest peptide concentration that inhibits bacterial growth in wells with no visible bacterial growth. MIC was determined by micro-broth dilution. Bacteria were cultured overnight in 6 mL of Luria Broth (LB). […]"}, "[2]": {"system": "Gram-positive and Gram-negative bacteria strains", "type": "cell-based", "conditions": "span over all bacterial strains tested; micro-broth dilution", "protocol": "as §2, §5"}, "E. faecium (ATCC 700221)": {"system": "E. faecium (ATCC 700221)", "assay": "microbe, parasite or virus in culture", "type": "cell-based, Enterococcus faecium", "conditions": "ATCC 700221, 24 h", "protocol": "as §2, §3, §4"}, "[3]": {"system": "Gram-negative strains: K. pneumoniae, P. aeruginosa, and E. coli", "assay": "MIC, micro-broth dilution, span over Gram-negative strains", "type": "cell-based", "protocol": "as §2, §5"}, "MRSA (ATCC BAA-1556)": {"system": "MRSA (ATCC BAA-1556)", "assay": "microbe, parasite or virus in culture", "type": "cell-based, Methicillin-Resistant Staphylococcus aureus", "conditions": "ATCC BAA-1556, 24 h", "procedure,_shortened": "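Read-out is visible growth: the MIC is the lowest peptide concentration leaving wells clear after 24 h at 37 °C. Twofold dilutions in MH broth started at 256 µg/mL […] against a 1/150-diluted 0.5 McFarland inoculum; triplicates, repeated twice.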"}}, "note": "Several values for one entry are separate records, joined by “and”; a condition that tells them apart may be missing. Equal entries are not always repeated. Non-standard residues stand in square brackets, D forms with d. Residues, ends and D or L forms follow the SMILES beside them. Dip = N[C@H](C(=O)O)C(c1ccccc1)c1ccccc1"}
{"smiles": "N=C(N)NCCC[C@@H]1NC(=O)[C@H](C(c2ccccc2)c2ccccc2)NC(=O)[C@H](CCCNC(=N)N)NC(=O)[C@H](C(c2ccccc2)c2ccccc2)NC(=O)[C@H](CCCNC(=N)N)NC(=O)[C@H](C(c2ccccc2)c2ccccc2)NC(=O)[C@H](CCCNC(=N)N)NC(=O)[C@H](C(c2ccccc2)c2ccccc2)NC(=O)[C@H](CCCNC(=N)N)NC(=O)[C@H](C(c2ccccc2)c2ccccc2)NC1=O", "note": "[[DipR]5] (cyclo([Dip]R[Dip]R[Dip]R[Dip]R[Dip]R))", "values": [{"measurement": "cytotoxicity against MDA-MB-468 cells", "setting": "MDA-MB-468 cells", "result": "reduced cytotoxicity"}, {"measurement": "cytotoxicity against MES-SA cells", "setting": "MES-SA cells", "result": "moderate effects"}, {"measurement": "cytotoxicity against LLC-PK1 cells", "setting": "LLC-PK1 cells", "result": "reduced cytotoxicity"}, {"measurement": "MIC", "setting": "B. subtilis (ATCC-6633)", "result": 6.3, "unit": "µM"}, {"measurement": "MIC values against Gram-positive bacteria strains", "setting": "[1]", "result": "0.39 to 6.3", "unit": "µM"}, {"measurement": "MIC values against Gram-positive and Gram-negative bacteria strains", "setting": "[2]", "result": "0.39 to 25", "unit": "µM"}, {"measurement": "MIC", "setting": "E. faecium (ATCC 700221)", "result": 0.78, "unit": "µM"}, {"measurement": "MIC values against Gram-negative strains", "setting": "[3]", "result": "12.5–25 µM and 23.8–47.6 µg/mL"}, {"measurement": "MIC", "setting": "MRSA (ATCC BAA-1556)", "result": 3.1, "unit": "µM"}]}
